These are literature values, as cited in patent US10906892B2, “LFA-1 inhibitor and methods of preparation and polymorph thereof” (NOVARTIS PHARMACEUTICALS CORPORATION, priority 2012, dated 2021).

The target in data set [1] is Lymphocyte Function-Associated Antigen-1 (LFA-1) interactions with ICAM (Homo sapiens, UniProt P20701). The settings on record: background statement, no data given.
For data set [2] the following is noted: background statement, no data given.

Lymphocyte Function-Associated Antigen-1 (LFA-1) interactions with ICAM, sequence (P20701 26-1170): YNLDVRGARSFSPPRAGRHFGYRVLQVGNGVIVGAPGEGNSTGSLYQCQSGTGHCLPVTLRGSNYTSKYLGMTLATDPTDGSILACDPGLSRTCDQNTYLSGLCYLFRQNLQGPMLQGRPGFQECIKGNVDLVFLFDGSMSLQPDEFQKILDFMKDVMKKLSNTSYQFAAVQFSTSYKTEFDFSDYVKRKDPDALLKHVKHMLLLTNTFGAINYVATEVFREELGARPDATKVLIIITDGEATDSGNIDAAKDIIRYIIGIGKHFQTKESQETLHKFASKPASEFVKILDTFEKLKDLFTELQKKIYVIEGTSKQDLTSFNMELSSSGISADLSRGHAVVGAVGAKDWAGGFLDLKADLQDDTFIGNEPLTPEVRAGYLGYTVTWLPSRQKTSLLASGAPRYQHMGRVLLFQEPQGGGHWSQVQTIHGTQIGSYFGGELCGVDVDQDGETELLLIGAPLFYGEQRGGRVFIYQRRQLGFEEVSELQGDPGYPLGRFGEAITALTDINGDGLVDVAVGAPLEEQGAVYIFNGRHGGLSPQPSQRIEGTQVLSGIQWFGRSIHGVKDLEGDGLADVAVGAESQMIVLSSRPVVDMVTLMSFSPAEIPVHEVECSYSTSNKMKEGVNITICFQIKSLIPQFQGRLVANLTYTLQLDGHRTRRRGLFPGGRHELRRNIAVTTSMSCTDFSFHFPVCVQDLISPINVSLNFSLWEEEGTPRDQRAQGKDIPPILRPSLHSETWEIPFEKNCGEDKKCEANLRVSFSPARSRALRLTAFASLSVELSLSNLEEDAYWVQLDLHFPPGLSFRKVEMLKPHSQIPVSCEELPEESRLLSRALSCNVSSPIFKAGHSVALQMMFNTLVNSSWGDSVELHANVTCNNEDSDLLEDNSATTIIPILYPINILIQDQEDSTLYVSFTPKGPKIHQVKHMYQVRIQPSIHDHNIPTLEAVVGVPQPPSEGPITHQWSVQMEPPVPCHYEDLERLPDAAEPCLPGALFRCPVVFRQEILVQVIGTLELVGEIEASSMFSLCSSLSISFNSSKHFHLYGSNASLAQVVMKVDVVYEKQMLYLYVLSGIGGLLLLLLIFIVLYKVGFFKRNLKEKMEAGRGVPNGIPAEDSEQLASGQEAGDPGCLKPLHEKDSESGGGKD
Lymphocyte Function-Associated Antigen-1 (LFA-1) interactions with ICAM, sequence (P05107 23-769 partner): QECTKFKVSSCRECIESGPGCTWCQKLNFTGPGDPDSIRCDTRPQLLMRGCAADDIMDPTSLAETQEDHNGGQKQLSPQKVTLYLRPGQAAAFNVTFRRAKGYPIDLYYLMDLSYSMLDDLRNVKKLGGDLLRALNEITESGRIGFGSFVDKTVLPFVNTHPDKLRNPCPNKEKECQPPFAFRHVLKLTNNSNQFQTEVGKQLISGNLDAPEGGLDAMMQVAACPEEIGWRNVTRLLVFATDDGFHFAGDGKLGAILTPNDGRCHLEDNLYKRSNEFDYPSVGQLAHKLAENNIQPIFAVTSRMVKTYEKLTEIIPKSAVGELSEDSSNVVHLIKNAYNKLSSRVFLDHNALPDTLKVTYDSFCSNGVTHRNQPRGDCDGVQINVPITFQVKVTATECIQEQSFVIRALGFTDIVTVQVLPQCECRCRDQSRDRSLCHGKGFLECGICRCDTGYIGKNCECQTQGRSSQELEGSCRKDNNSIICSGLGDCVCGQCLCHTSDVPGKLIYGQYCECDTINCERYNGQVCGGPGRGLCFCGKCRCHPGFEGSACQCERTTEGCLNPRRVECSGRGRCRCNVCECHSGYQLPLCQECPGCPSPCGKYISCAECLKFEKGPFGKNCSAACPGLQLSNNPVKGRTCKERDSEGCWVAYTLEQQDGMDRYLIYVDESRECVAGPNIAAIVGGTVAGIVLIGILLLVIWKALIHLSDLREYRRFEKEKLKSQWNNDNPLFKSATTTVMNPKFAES

In the case of `CS(=O)(=O)c1cccc(C[C@H](NC(=O)c2c(Cl)cc3c(c2Cl)CCN(C(=O)c2ccc4ccoc4c2)C3)C(=O)O)c1` [Formula I], the “inhibition of LFA-1 interactions with ICAM” value in data set [1] is reported as “effective inhibitor”. Besides, the systemic clearance entry in data set [2] is given as “rapid systemic clearance”.
